The results in this text go back to ChEMBL document CHEMBL2429832, “N-substituted 8-aminopentacyclo[5.4.0.0(2,6).0(3,10).0(5,9)]undecanes as σ receptor ligands with potential neuroprotective effects” (Bioorg Med Chem, 2013).

SMILES strings stand for the structures.

For one experiment, the species on record is Rattus norvegicus. Kind of experiment: Inhibition of rat brain BZP receptor at 10 uM by PDSP assay relative to control.
For experiment [1], the target named is T1, Alpha-1B adrenergic receptor (Homo sapiens) (UniProt P35368).
T1 sequence (whole entry): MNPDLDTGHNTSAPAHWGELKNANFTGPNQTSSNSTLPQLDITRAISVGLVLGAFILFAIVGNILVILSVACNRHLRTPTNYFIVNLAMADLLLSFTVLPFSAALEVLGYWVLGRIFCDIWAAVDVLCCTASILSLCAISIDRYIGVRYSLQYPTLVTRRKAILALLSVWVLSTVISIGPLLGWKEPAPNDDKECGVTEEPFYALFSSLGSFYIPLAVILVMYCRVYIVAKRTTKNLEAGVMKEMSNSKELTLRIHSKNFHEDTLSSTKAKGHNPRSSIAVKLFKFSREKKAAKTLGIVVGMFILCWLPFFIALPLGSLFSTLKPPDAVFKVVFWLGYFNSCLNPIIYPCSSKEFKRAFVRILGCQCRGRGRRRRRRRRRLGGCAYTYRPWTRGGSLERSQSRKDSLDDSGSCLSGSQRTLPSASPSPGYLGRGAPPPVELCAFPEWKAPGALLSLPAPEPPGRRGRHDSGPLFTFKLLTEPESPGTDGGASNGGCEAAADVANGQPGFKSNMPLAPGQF
Kind of experiment: Inhibition of adrenergic alpha1B receptor (unknown origin) at 10 uM by PDSP assay relative to control.

A further experiment has as its target Histamine H3 receptor (Homo sapiens, UniProt Q9Y5N1). Kind of experiment: Inhibition of histamine H3 receptor (unknown origin) at 10 uM by PDSP assay relative to control.
The next experiment deals with Histamine H4 receptor (Homo sapiens, UniProt Q9H3N8). Kind of experiment: Inhibition of histamine H4 receptor (unknown origin) at 10 uM by PDSP assay relative to control.
In experiment [2] the target is T2, 5-hydroxytryptamine receptor 3A (Homo sapiens) (UniProt P46098).
T2 sequence (whole entry): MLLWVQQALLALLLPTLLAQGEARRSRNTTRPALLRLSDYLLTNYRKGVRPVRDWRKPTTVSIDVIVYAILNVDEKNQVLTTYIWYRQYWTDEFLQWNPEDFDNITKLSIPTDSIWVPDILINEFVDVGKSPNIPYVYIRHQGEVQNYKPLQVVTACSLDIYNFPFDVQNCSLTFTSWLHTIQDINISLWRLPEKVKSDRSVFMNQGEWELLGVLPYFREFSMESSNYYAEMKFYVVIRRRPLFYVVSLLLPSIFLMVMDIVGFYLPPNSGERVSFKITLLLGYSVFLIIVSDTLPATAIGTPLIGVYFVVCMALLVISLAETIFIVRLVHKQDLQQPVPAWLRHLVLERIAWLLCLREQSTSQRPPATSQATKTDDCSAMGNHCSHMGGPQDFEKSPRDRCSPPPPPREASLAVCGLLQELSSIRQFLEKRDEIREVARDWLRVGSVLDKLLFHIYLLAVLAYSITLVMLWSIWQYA
Kind of experiment: Inhibition of 5-HT3 receptor (unknown origin) at 10 uM by PDSP assay relative to control.

The target in experiment [3] is Delta-type opioid receptor (Homo sapiens, UniProt P41143). Kind of experiment: Inhibition of delta opioid receptor (unknown origin) at 10 uM by PDSP assay relative to control.
The target of experiment [4] is 5-hydroxytryptamine receptor 1E (Homo sapiens) (UniProt P28566). Kind of experiment: Inhibition of 5-HT1E receptor (unknown origin) at 10 uM by PDSP assay relative to control.
The subject of the next experiment is PC-12. Kind of experiment: Selectivity ratio of Ki for sigma-1 receptor in rat brain homogenates to Ki for sigma-2 receptor in rat PC12 cells. Format: cell-based.
Experiment [5] concerns the target GABA-A receptor; agonist GABA site (Homo sapiens) (UniProt P14867+P47870+P28472+P48169+P34903+P18505+P47869+P31644+Q16445). Kind of experiment: Inhibition of GABAA receptor (unknown origin) at 10 uM by PDSP assay relative to control. The experiment is classed as protein-complex assay.
In experiment [6] the target is D(1A) dopamine receptor (Homo sapiens) (UniProt P21728). Kind of experiment: Inhibition of dopamine D1 receptor (unknown origin) at 10 uM by PDSP assay relative to control.
Experiment [7] has as its target 5-hydroxytryptamine receptor 5A (Homo sapiens, UniProt P47898). Kind of experiment: Inhibition of 5-HT5A receptor (unknown origin) at 10 uM by PDSP assay relative to control.
The target of experiment [8] is Sodium-dependent dopamine transporter (Homo sapiens, UniProt Q01959). Kind of experiment: Displacement of [3H]-WIN-35,428 from human DAT expressed in HEK cell membranes at 10 uM relative to control. The following applies: HEK293.
A further experiment addresses D(2) dopamine receptor (Homo sapiens, UniProt P14416). Kind of experiment: Inhibition of dopamine D2 receptor (unknown origin) at 10 uM by PDSP assay relative to control.
In experiment [9] the target is T3, Muscarinic acetylcholine receptor M5 (Homo sapiens) (UniProt P08912).
T3 sequence (whole entry): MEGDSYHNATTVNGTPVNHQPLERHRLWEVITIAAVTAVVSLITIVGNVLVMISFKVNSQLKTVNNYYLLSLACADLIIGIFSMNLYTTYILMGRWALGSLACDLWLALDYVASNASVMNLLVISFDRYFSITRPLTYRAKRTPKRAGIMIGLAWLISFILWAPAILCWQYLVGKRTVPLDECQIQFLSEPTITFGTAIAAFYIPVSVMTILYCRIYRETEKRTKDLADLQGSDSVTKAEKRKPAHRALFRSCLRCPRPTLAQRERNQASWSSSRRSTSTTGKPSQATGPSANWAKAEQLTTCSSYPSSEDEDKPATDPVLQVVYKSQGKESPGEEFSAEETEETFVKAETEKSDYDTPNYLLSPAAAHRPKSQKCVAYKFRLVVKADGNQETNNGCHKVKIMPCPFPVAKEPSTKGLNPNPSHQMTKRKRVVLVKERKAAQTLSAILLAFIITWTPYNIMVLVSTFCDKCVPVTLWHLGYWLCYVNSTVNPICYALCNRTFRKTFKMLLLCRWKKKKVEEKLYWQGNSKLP
Kind of experiment: Inhibition of muscarinic M5 receptor (unknown origin) at 10 uM by PDSP assay relative to control.

Experiment [10] addresses Muscarinic acetylcholine receptor M3 (Homo sapiens, UniProt P20309). Kind of experiment: Inhibition of muscarinic M3 receptor (unknown origin) at 10 uM by PDSP assay relative to control.

Sequence of Histamine H3 receptor (Q9Y5N1 whole entry): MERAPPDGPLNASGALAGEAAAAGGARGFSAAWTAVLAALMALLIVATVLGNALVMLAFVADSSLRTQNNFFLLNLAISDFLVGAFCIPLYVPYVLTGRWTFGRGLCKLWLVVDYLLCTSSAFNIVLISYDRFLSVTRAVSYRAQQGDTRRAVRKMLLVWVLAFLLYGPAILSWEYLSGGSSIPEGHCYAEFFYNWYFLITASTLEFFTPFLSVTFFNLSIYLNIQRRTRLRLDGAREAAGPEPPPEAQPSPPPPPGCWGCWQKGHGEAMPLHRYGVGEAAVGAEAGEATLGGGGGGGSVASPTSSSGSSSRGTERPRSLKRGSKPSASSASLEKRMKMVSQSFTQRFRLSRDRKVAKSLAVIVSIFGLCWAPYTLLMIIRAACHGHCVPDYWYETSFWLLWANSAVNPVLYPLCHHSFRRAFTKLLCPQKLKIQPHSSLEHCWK
Sequence of D(2) dopamine receptor (P14416 whole entry): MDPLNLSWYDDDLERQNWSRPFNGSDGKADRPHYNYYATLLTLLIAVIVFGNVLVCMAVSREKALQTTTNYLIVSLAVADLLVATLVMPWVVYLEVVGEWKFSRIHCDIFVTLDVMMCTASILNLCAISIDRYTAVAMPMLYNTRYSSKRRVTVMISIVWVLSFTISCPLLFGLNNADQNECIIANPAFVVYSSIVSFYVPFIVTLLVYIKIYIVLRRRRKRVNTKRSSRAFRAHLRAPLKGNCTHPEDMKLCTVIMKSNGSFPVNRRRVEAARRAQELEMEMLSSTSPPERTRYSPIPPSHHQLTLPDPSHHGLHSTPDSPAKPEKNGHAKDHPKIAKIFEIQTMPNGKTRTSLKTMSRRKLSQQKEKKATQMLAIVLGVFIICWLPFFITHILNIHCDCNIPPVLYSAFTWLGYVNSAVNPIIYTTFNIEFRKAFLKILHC
Sequence of D(1A) dopamine receptor (Homo sapiens) (P21728 whole entry): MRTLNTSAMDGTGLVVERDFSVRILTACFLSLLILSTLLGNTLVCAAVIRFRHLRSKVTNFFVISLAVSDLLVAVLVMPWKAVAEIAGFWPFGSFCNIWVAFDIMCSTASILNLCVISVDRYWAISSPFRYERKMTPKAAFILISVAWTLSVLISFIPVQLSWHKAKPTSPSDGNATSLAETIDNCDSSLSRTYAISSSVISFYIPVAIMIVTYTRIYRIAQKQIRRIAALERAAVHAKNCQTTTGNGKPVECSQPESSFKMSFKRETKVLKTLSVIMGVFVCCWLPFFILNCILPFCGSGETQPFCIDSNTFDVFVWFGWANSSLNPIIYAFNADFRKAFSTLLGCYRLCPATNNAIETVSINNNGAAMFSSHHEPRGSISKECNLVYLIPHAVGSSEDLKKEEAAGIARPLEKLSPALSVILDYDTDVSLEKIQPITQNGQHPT
Sequence of 5-hydroxytryptamine receptor 1E (Homo sapiens) (P28566 whole entry): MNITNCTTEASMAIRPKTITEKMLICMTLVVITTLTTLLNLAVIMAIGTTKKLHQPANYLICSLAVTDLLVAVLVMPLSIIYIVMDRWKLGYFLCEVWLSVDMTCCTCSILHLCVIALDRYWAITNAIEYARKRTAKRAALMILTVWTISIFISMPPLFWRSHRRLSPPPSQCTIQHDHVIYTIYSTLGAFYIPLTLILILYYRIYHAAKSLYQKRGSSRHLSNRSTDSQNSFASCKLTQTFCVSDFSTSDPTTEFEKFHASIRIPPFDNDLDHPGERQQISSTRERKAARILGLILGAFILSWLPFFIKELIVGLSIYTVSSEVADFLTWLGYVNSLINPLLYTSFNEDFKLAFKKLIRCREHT
Sequence of Delta-type opioid receptor (P41143 whole entry): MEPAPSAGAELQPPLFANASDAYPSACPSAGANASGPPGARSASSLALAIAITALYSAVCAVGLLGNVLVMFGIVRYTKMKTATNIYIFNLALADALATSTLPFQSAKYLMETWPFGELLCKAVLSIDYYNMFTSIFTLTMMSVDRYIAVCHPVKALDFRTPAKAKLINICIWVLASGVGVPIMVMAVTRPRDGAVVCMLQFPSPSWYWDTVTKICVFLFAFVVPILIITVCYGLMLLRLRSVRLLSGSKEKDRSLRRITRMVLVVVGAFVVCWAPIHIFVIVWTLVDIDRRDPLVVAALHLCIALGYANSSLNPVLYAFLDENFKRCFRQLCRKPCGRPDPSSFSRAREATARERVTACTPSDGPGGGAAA
Sequence of Muscarinic acetylcholine receptor M3 (P20309 whole entry, looked up): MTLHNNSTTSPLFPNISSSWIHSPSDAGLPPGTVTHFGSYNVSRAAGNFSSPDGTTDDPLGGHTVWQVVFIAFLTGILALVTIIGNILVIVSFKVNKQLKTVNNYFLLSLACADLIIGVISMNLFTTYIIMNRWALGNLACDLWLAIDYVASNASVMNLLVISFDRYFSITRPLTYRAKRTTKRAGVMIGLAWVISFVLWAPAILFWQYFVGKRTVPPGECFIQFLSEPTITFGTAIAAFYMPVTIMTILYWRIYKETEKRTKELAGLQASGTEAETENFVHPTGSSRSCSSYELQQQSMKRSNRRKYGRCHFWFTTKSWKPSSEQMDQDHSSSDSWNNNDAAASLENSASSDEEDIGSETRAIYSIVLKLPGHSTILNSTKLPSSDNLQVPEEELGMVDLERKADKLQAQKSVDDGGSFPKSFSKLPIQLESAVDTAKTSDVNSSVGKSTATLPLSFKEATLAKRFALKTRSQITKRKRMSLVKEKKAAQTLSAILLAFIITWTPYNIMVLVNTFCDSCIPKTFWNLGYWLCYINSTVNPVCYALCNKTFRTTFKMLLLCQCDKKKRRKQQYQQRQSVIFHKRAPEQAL
Sequence of Sodium-dependent dopamine transporter (Q01959 whole entry): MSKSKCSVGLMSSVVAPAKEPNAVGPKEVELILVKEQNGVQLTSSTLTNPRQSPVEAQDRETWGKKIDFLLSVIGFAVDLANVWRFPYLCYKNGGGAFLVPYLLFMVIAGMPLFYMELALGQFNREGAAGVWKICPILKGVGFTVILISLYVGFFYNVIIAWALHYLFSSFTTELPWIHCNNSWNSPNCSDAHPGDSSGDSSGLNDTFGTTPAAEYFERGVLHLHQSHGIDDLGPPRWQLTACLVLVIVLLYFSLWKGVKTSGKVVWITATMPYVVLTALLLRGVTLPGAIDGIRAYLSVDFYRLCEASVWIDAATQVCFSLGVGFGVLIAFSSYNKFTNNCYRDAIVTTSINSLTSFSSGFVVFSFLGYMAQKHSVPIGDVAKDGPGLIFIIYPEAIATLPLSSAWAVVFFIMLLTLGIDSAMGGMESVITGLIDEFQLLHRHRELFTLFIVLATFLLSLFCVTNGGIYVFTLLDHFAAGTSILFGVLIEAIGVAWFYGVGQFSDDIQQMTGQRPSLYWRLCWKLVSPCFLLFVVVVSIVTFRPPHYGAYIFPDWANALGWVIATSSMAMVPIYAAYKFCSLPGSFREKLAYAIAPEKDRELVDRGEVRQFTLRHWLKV
Sequence of 5-hydroxytryptamine receptor 5A (P47898 whole entry): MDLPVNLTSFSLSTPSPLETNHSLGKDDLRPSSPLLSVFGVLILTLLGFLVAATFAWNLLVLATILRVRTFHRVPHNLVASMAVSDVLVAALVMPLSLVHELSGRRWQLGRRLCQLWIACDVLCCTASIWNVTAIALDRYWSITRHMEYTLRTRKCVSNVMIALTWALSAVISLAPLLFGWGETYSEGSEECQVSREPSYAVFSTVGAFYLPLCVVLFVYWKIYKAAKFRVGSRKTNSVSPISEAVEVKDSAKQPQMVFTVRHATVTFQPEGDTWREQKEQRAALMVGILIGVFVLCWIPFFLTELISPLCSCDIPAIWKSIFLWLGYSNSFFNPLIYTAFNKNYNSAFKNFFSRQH
Sequence of Histamine H4 receptor (Q9H3N8 whole entry): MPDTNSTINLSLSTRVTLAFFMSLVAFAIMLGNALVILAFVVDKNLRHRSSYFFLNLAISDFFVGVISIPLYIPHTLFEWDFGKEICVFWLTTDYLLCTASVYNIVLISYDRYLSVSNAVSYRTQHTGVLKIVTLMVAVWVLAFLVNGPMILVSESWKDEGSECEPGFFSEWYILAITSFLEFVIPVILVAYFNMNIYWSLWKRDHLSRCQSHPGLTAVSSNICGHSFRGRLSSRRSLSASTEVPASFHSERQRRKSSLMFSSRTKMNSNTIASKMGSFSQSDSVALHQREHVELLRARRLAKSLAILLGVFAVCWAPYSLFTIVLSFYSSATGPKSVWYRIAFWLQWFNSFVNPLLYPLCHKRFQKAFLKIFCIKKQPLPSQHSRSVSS

Broadly, the inhibition is the relative decrease from the control value, in per cent. A higher inhibition goes with strong suppression. For `C1C2C3CC4C2C2C1C3[C@H](NCC13C5C6C7C5C1C7C63)C42` (some centres not stated), the inhibition (in the experiment filed under Rattus norvegicus; in experiment [1]; at Histamine H3 receptor; against Histamine H4 receptor; in experiment [2]; in experiment [3]) was below 50% in each case. Besides, the inhibition in experiment [4], in experiment [5] and in experiment [6] was below 50% each time. Further, in the experiment with PC-12, the Ratio Ki came out at 1.5.
For `COc1ccc(CN(C)[C@H]2C3C4CC5C6C4CC3C6C52)cc1OC` (some centres not stated), the inhibition (in the experiment filed under Rattus norvegicus; in experiment [7]; in [8]; against D(2) dopamine receptor; in experiment [9]; in experiment [1]) was below 50% throughout. Further, the inhibition (on Histamine H3 receptor; in experiment [10]; on Histamine H4 receptor; in experiment [2]; in experiment [3]; in experiment [4]) was below 50% throughout. Also, the inhibition in [5] and in experiment [6] was below 50% in each case. In the experiment on PC-12, the Ratio Ki came to 9.4.
Turning to `c1cc2c(cc1CN[C@H]1C3C4CC5C6C4CC3C6C51)OCO2` (some centres not stated), the inhibition (in the experiment filed under Rattus norvegicus; in experiment [8]; on D(2) dopamine receptor; in experiment [9]; in experiment [1]; at Histamine H3 receptor) was below 50% throughout. The inhibition (in [10]; on Histamine H4 receptor; in [2]; in experiment [3]; in [4]; in [5]) was below 50% throughout. The molecule further showed an inhibition in experiment [6] below 50%. In the experiment on PC-12, the Ratio Ki stood at 1.1.
Consider `COc1ccc(CN[C@H]2C3C4CC5C6C4CC3C6C52)cc1OC` (some centres not stated), for which the inhibition (in experiment [7]; in experiment [8]; against D(2) dopamine receptor; in experiment [9]; in experiment [1]; at Histamine H3 receptor) was below 50% each time. The inhibition (in experiment [10]; at Histamine H4 receptor; in experiment [2]; in experiment [3]; in [4]; in experiment [6]) was below 50% throughout. In the experiment with PC-12, the Ratio Ki is 3.8.
As to `CN(CCc1ccccc1)[C@H]1C2C3CC4C5C3CC2C5C41` (some centres not stated), the inhibition (in the experiment listed under Rattus norvegicus; in experiment [7]; in experiment [8]; in experiment [9]; in [1]; on Histamine H3 receptor) was below 50% in each case. The inhibition (in experiment [10]; against Histamine H4 receptor; in experiment [2]; in [3]; in experiment [4]; in [5]) was below 50% each time. Moreover, the inhibition in [6] is below 50%. The Ratio Ki with PC-12 was found to be 48.3.
`c1ccc(CN[C@H]2C3C4CC5C6C4CC3C6C52)cc1` (some centres not stated): the inhibition (in experiment [7]; against D(2) dopamine receptor; in experiment [9]; at Histamine H3 receptor; in experiment [10]; against Histamine H4 receptor) was below 50% throughout. Also, the inhibition in experiment [2], in experiment [3], in experiment [4] and in experiment [6] was below 50% each time. In addition, in the experiment on PC-12, the Ratio Ki stood at 4.1.
As to `c1ccc(CCN[C@H]2C3C4CC5C6C4CC3C6C52)cc1` (some centres not stated), the inhibition (in [7]; in experiment [1]; on Histamine H3 receptor; at Histamine H4 receptor; in experiment [2]; in [3]) was below 50% throughout. Further, the inhibition in experiment [4] and in [6] was below 50% each time. Further, the Ratio Ki with PC-12 is 5.3.
Turning to `CN(Cc1ccccc1)[C@H]1C2C3CC4C5C3CC2C5C41` (some centres not stated), the inhibition (in the experiment listed under Rattus norvegicus; in [7]; against D(2) dopamine receptor; in experiment [9]; in experiment [1]; on Histamine H3 receptor) was below 50% each time. The inhibition (in experiment [10]; against Histamine H4 receptor; in experiment [2]; in [3]; in experiment [4]; in [5]) was below 50% in each case. In experiment [6], this molecule yielded an inhibition below 50%. The Ratio Ki with PC-12 was 15.4.
Take `CN(Cc1ccc2c(c1)OCO2)[C@H]1C2C3CC4C5C3CC2C5C41` (some centres not stated): the inhibition (in [7]; in experiment [8]; against D(2) dopamine receptor; in experiment [9]; in [1]; on Histamine H3 receptor) was below 50% throughout. Moreover, the inhibition (in [10]; against Histamine H4 receptor; in [2]; in [3]; in experiment [4]; in experiment [5]) was below 50% in each case. Besides, the inhibition in [6] is below 50%. Also, in the experiment on PC-12, the Ratio Ki was 3.4.
For `CN(CCc1ccccc1)[C@H]1C2C3CC4C2C(=O)C2C4C3C21` (some centres not stated), the inhibition (in the experiment filed under Rattus norvegicus; in experiment [7]; at D(2) dopamine receptor; in experiment [1]; against Histamine H3 receptor; in experiment [10]) was below 50% throughout. Besides, the inhibition (against Histamine H4 receptor; in experiment [2]; in [3]; in experiment [4]; in [5]; in experiment [6]) was below 50% in each case. For the same molecule, the Ratio Ki in the experiment with PC-12 amounted to 4.8.
